Data reported in US20210047291A1, “PESTICIDALLY ACTIVE HETEROCYCLIC DERIVATIVES WITH SULFUR CONTAINING SUBSTITUENTS” (SYNGENTA PARTICIPATIONS AG, priority 2018, published 2021).

Key:
Assay type in all cases: in vivo
[1] = test system: Euschistus heros (Neotropical Brown Stink Bug); experiment: Example B3: Euschistus heros, soybean leaves, N2 nymphs; settings: for percent effect (mortality or growth inhibition) at 200 ppm: Euschistus heros, 120 h, application rate of 200 ppm, N2 nymphs, 5 days after infestation, read-out: effect in at least one of the two categories (mortality or growth inhibition); for mortality at 50 ppm: Concentration 50 ppm, Euschistus heros (Example B3), read-out: Mortality (%)
Protocol: Soybean leaves on agar in 24-well microtiter plates were sprayed with aqueous test solutions prepared from 10,000 ppm DMSO stock solutions. After drying the leaves were infested with N2 nymphs. The samples were assessed for mortality and growth inhibition in comparison to untreated samples 5 days after infestation.

[2] = test system: Myzus persicae (Green peach aphid); experiment: Example B5: Myzus persicae feeding/contact activity, sunflower leaf discs; settings: foliar; for mortality at 200 ppm: Myzus persicae, 144 h, application rate of 200 ppm, mixed ages, 6 days after infestation, read-out: mortality; for mortality at 12.5 ppm: Concentration 12.5 ppm, Myzus persicae (feeding/contact, Example B5), read-out: Mortality (%)
Protocol: Sunflower leaf discs were placed onto agar in a 24-well microtiter plate and sprayed with aqueous test solutions prepared from 10,000 ppm DMSO stock solutions. After drying, the leaf discs were infested with an aphid population of mixed ages. The samples were assessed for mortality 6 days after infestation.

[3] = test system: Myzus persicae (Green peach aphid); experiment: Example B6: Myzus persicae systemic activity, pea seedlings; settings: for mortality at 24 ppm: Myzus persicae, 144 h, test rate of 24 ppm, mixed ages, 6 days after placing seedlings into test solutions, read-out: mortality; for mortality at 1.5 ppm: Concentration 1.5 ppm, Myzus persicae (systemic, Example B6), read-out: Mortality (%)
Protocol: Roots of pea seedlings infested with an aphid population of mixed ages were placed directly into aqueous test solutions prepared from 10,000 DMSO stock solutions. The samples were assessed for mortality 6 days after placing seedlings into test solutions.

[4] = test system: Diabrotica Balteata (Corn Root Worm); experiment: Example B2: Diabrotica balteata, maize sprouts, L2 larvae; settings: for percent effect (mortality or growth inhibition) at 200 ppm: Diabrotica balteata, 96 h, application rate of 200 ppm, L2 larvae, 4 days after infestation, read-out: effect in at least one of the two categories (mortality or growth inhibition)
Protocol: Maize sprouts placed onto an agar layer in 24-well microtiter plates were treated with aqueous test solutions prepared from 10,000 ppm DMSO stock solutions by spraying. After drying, the plates were infested with L2 larvae (6 to 10 per well). The samples were assessed for mortality and growth inhibition in comparison to untreated samples 4 days after infestation.

[5] = test system: Melodoigyne incognita; experiment: Example B14: Melodoigyne incognita juvenile mobility, in vitro profiling in 96 well plate; settings: 200 ppm; after 24 h; second stage juveniles; read-out: control (juvenile mobility)
Protocol: Test solutions are prepared from 10,000 ppm DMSO stock solutions with a TECAN robot to achieve 20 μL of 1000, 200, 100, 50, 25 and 12.5 ppm. For each concentration three replicates are produced. Per well, 80 μL nematode solution is added containing 100 to 150 freshly harvested second stage juveniles of Melodoigyne incognita. The plates are covered and stored at room temperature in the dark and incubated for 24 h. Mobility of the exposed juveniles in a treated well is measured using an imaging tool and compared to an average of 12 untreated replicates.

[6] = test system: Plutella xylostella (Diamond Back Moth); experiment: Example B7: Plutella xylostella, artificial diet, L2 larvae; settings: 120 h, application rate of 200 ppm, L2 larvae, 5 days after infestation, read-out: effect in at least one of the two categories (mortality or growth inhibition)
Protocol: 24-well microtiter plates with artificial diet were treated with aqueous test solutions prepared from 10,000 ppm DMSO stock solutions by pipetting. After drying, the plates were infested with L2 larvae (10 to 15 per well). The samples were assessed for mortality and growth inhibition in comparison to untreated samples 5 days after infestation.

Structure (SMILES)	percent effect (mortality or growth inhibition) at 200 ppm [1]	mortality at 200 ppm [2]	mortality at 24 ppm [3]	pest or weed control at 200 ppm [5]	further results
CCC(=O)N(CC(F)(F)F)c1cnc(-c2nc3cc(C(F)(F)F)ncc3n2C)c(S(=O)(=O)CC)c1 [P32, N-[5-ethylsulfonyl-6-[3-methyl-6-(trifluoromethyl)imidazo[4,5-c]pyridin-2-yl]-3-pyridyl]-N-(2,2,2-trifluoroethyl)propanamide]	≥ 80%	≥ 80%	≥ 80%		percent effect (mortality or growth inhibition) at 200 ppm [4]: ≥ 80%
CCS(=O)(=O)c1cc(NC(=O)C(C)(C)O)cnc1-c1nc2cc(C(F)(F)F)ncc2n1C [P8, N-[5-ethylsulfonyl-6-[3-methyl-6-(trifluoromethyl)imidazo[4,5-c]pyridin-2-yl]-3-pyridyl]-2-hydroxy-2-methyl-propanamide]	≥ 80%	≥ 80%	≥ 80%		
CCS(=O)(=O)c1cc(-n2ccccc2=O)cnc1-c1nc2cc(C(F)(F)F)ncc2n1C [reference compound]					mortality at 50 ppm [1]: 50%; mortality at 12.5 ppm [2]: 0%; mortality at 1.5 ppm [3]: 0%
CCS(=O)(=O)c1cc(N(C)C(=O)C(C)(C)C)cnc1-c1nc2cc(C(F)(F)F)ncc2n1C [P26, N-[5-ethylsulfonyl-6-[3-methyl-6-(trifluoromethyl)imidazo[4,5-c]pyridin-2-yl]-3-pyridyl]-N,2,2-trimethyl-propanamide]	≥ 80%	≥ 80%	≥ 80%	≥ 80%	percent effect (mortality or growth inhibition) at 200 ppm [6]: ≥ 80%
CCSc1cc(N(C(C)=O)C(C)C)cnc1-c1nc2cc(C(F)(F)F)ncc2n1C [P47, N-[5-ethylsulfanyl-6-[3-methyl-6-(trifluoromethyl)imidazo[4,5-c]pyridin-2-yl]-3-pyridyl]-N-isopropyl-acetamide]	≥ 80%				
CCS(=O)(=O)c1cc(N(C)C(C)=O)ccc1-c1nc2cc(C(F)(F)F)ncc2n1C [P16, N-[3-ethylsulfonyl-4-[3-methyl-6-(trifluoromethyl)imidazo[4,5-c]pyridin-2-yl]phenyl]-N-methyl-acetamide]	≥ 80%	≥ 80%	≥ 80%		
CCS(=O)(=O)c1cc(N2CCS(=O)(=O)CC2=O)cnc1-c1nc2cc(C(F)(F)F)ncc2n1C [P18, 4-[5-ethylsulfonyl-6-[3-methyl-6-(trifluoromethyl)imidazo[4,5-c]pyridin-2-yl]-3-pyridyl]-1,1-dioxo-1,4-thiazinan-3-one]	≥ 80%				
CCSc1cc(N(C)C(C)=O)cnc1-c1nc2cc(C(F)(F)F)ncc2n1C [P33, N-[5-ethylsulfanyl-6-[3-methyl-6-(trifluoromethyl)imidazo[4,5-c]pyridin-2-yl]-3-pyridyl]-N-methyl-acetamide]	≥ 80%	≥ 80%			
CCC(=O)Nc1cnc(-c2nc3cc(C(F)(F)F)ncc3n2C)c(S(=O)(=O)CC)c1 [P25, N-[5-ethylsulfonyl-6-[3-methyl-6-(trifluoromethyl)imidazo[4,5-c]pyridin-2-yl]-3-pyridyl]propanamide]	≥ 80%	≥ 80%	≥ 80%	≥ 80%	percent effect (mortality or growth inhibition) at 200 ppm [4]: ≥ 80%; percent effect (mortality or growth inhibition) at 200 ppm [6]: ≥ 80%
CCS(=O)(=O)c1cc(N2CCNC2=O)cnc1-c1nc2cc(C(F)(F)F)ncc2n1C [P36, 1-[5-ethylsulfonyl-6-[3-methyl-6-(trifluoromethyl)imidazo[4,5-c]pyridin-2-yl]-3-pyridyl]imidazolidin-2-one]	≥ 80%	≥ 80%	≥ 80%	≥ 80%	mortality at 50 ppm [1]: 100%; mortality at 12.5 ppm [2]: 90%; mortality at 1.5 ppm [3]: 100%
CCS(=O)(=O)c1cc(N(C)C(=O)CCSC)cnc1-c1nc2cc(C(F)(F)F)ncc2n1C [P41, N-[5-ethylsulfonyl-6-[3-methyl-6-(trifluoromethyl)imidazo[4,5-c]pyridin-2-yl]-3-pyridyl]-N-methyl-3-methylsulfanyl-propanamide]	≥ 80%	≥ 80%		≥ 80%	
CCS(=O)(=O)c1cc(NC(C)=O)cnc1-c1nc2cc(C(F)(F)F)ncc2n1C [drawing 155, reference compound]					Mortality (%) ([4]; Concentration 200 ppm, Diabrotica balteata (Example B2)): 0%
CCS(=O)(=O)c1cc(NC(=O)C2CC2)cnc1-c1nc2cc(C(F)(F)F)cnc2n1C [reference compound]					mortality at 1.5 ppm [3]: 0%
CCS(=O)(=O)c1cc(NC(=O)C(C)(C)C)cnc1-c1nc2cc(C(F)(F)F)ncc2n1C [P39, N-[5-ethylsulfonyl-6-[3-methyl-6-(trifluoromethyl)imidazo[4,5-c]pyridin-2-yl]-3-pyridyl]-2,2-dimethyl-propanamide]	≥ 80%	≥ 80%	≥ 80%	≥ 80%	
CCS(=O)(=O)c1cc(N(C)C(=O)CCS(C)(=O)=O)cnc1-c1nc2cc(C(F)(F)F)ncc2n1C [P31, N-[5-ethylsulfonyl-6-[3-methyl-6-(trifluoromethyl)imidazo[4,5-c]pyridin-2-yl]-3-pyridyl]-N-methyl-3-methylsulfonyl-propanamide]	≥ 80%	≥ 80%			
CCS(=O)(=O)c1cc(N2CCOCC2=O)cnc1-c1nc2cc(C(F)(F)F)ncc2n1C [P15, 4-[5-ethylsulfonyl-6-[3-methyl-6-(trifluoromethyl)imidazo[4,5-c]pyridin-2-yl]-3-pyridyl]morpholin-3-one]	≥ 80%	≥ 80%	≥ 80%	≥ 80%	
CCS(=O)(=O)c1cc(N(C)C(=O)CC(F)(F)F)cnc1-c1nc2cc(C(F)(F)F)ncc2n1C [P28, N-[5-ethylsulfonyl-6-[3-methyl-6-(trifluoromethyl)imidazo[4,5-c]pyridin-2-yl]-3-pyridyl]-3,3,3-trifluoro-N-methyl-propanamide]	≥ 80%	≥ 80%	≥ 80%		percent effect (mortality or growth inhibition) at 200 ppm [4]: ≥ 80%
CCS(=O)(=O)c1cc(NC(=O)C(F)(F)F)cnc1-c1nc2cc(C(F)(F)F)ncc2n1C [P44, N-[5-ethylsulfonyl-6-[3-methyl-6-(trifluoromethyl)imidazo[4,5-c]pyridin-2-yl]-3-pyridyl]-2,2,2-trifluoro-acetamide]	≥ 80%	≥ 80%		≥ 80%	percent effect (mortality or growth inhibition) at 200 ppm [4]: ≥ 80%
CCS(=O)(=O)c1cc(N2CCN(C)C2=O)cnc1-c1nc2cc(C(F)(F)F)ncc2n1C [P37, 1-[5-ethylsulfonyl-6-[3-methyl-6-(trifluoromethyl)imidazo[4,5-c]pyridin-2-yl]-3-pyridyl]-3-methyl-imidazolidin-2-one]	≥ 80%	≥ 80%	≥ 80%	≥ 80%	mortality at 50 ppm [1]: 100%; mortality at 12.5 ppm [2]: 90%; mortality at 1.5 ppm [3]: 100%
CCN(C(=O)CCl)c1cnc(-c2nc3cc(C(F)(F)F)ncc3n2C)c(S(=O)(=O)CC)c1 [P20, 2-chloro-N-ethyl-N-[5-ethylsulfonyl-6-[3-methyl-6-(trifluoromethyl)imidazo[4,5-c]pyridin-2-yl]-3-pyridyl]acetamide]	≥ 80%	≥ 80%	≥ 80%	≥ 80%	percent effect (mortality or growth inhibition) at 200 ppm [4]: ≥ 80%
CCS(=O)(=O)c1ccc(N2CCN(C)C2=O)nc1-c1nc2cc(C(F)(F)F)ncc2n1C [reference compound]					mortality at 50 ppm [1]: 50%; mortality at 12.5 ppm [2]: 80%; mortality at 1.5 ppm [3]: 0%
